Results published in ChEMBL document CHEMBL1150977, “A quantitative analysis of kinase inhibitor selectivity” (Nat Biotechnol, 2008).
pKd: −log10 of the molar value.

What was measured:
[1] = target: Mitogen-activated protein kinase kinase kinase kinase 5 (Homo sapiens, UniProt Q9Y4K4)
[2] = target: Hepatocyte growth factor receptor (Homo sapiens, UniProt P08581)
[3] = target: Cyclin-dependent kinase 2 (Homo sapiens, UniProt P24941)
[4] = target: T1, Phosphatidylinositol 5-phosphate 4-kinase type-2 beta (Homo sapiens, UniProt P78356)
T1 sequence (P78356 whole entry): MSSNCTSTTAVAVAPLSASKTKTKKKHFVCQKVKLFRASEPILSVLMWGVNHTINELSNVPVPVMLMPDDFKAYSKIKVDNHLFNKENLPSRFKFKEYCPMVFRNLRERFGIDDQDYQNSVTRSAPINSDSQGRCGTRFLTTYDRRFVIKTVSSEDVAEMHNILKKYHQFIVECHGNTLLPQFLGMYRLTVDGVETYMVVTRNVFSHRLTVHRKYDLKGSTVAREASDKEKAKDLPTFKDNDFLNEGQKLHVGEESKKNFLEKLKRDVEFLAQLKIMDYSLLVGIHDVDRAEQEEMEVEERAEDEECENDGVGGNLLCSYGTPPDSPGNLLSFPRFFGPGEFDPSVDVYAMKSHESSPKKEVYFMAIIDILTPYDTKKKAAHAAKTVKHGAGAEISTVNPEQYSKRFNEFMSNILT

[5] = target: Serine/threonine-protein kinase N2 (Homo sapiens, UniProt Q16513)
Sequence of Serine/threonine-protein kinase N2 (Q16513 whole entry): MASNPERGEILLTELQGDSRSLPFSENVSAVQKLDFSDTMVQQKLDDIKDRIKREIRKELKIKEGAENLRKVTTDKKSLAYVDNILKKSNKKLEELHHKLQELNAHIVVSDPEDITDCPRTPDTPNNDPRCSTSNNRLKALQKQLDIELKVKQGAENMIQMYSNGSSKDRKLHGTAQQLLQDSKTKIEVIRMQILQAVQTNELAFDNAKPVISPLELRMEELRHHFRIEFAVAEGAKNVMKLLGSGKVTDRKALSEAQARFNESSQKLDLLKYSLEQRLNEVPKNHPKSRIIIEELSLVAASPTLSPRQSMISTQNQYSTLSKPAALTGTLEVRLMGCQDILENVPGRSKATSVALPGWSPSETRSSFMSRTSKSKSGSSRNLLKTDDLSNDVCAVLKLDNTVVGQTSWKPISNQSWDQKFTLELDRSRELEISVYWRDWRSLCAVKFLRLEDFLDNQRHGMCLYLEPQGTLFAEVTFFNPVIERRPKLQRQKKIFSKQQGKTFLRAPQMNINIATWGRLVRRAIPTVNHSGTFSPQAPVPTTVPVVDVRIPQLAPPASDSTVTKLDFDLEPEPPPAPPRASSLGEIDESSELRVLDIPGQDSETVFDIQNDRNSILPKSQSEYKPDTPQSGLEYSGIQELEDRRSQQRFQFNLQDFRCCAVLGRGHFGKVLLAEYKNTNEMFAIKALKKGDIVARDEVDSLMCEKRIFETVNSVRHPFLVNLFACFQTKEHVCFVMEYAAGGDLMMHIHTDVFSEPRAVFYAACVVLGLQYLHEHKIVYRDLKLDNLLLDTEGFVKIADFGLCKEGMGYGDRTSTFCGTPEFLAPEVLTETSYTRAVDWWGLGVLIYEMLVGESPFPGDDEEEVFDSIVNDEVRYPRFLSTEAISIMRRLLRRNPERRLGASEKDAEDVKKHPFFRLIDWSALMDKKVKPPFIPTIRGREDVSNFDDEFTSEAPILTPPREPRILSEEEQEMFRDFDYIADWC

[6] = target: T2, Serine/threonine-protein kinase BRSK1 (Homo sapiens, UniProt Q8TDC3)
T2 sequence (Q8TDC3 whole entry): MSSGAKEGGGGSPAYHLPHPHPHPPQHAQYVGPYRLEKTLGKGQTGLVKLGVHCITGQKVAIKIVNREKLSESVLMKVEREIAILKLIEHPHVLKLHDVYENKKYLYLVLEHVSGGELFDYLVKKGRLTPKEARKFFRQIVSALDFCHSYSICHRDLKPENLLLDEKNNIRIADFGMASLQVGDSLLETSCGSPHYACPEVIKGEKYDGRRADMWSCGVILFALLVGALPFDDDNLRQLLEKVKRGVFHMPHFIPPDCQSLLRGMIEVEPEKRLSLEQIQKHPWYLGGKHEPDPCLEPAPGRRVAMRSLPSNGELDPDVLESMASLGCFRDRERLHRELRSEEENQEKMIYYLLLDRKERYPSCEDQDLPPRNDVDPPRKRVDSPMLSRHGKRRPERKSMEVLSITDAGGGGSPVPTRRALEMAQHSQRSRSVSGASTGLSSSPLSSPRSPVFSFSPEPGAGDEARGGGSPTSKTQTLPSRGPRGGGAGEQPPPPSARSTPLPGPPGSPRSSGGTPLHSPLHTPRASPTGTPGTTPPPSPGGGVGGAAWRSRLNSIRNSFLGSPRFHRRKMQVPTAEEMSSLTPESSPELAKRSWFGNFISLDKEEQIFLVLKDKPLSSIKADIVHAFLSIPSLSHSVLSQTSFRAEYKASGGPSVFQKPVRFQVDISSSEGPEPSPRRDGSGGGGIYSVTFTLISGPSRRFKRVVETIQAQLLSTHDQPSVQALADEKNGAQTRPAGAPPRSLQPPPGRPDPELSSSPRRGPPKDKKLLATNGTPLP

[7] = target: Casein kinase II subunit alpha' (Homo sapiens, UniProt P19784)
Sequence of Casein kinase II subunit alpha' (P19784 whole entry): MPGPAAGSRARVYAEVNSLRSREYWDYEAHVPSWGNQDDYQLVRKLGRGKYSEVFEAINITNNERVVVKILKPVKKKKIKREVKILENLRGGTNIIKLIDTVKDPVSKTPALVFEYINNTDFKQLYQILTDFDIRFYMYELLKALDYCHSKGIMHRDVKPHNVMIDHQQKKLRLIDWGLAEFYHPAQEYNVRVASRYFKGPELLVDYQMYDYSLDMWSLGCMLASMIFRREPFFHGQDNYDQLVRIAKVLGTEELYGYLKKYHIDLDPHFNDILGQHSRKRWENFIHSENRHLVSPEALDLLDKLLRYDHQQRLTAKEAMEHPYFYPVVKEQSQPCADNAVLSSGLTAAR

[8] = target: Ribosomal protein S6 kinase alpha-3 (Homo sapiens, UniProt P51812)
Sequence of Ribosomal protein S6 kinase alpha-3 (P51812 whole entry): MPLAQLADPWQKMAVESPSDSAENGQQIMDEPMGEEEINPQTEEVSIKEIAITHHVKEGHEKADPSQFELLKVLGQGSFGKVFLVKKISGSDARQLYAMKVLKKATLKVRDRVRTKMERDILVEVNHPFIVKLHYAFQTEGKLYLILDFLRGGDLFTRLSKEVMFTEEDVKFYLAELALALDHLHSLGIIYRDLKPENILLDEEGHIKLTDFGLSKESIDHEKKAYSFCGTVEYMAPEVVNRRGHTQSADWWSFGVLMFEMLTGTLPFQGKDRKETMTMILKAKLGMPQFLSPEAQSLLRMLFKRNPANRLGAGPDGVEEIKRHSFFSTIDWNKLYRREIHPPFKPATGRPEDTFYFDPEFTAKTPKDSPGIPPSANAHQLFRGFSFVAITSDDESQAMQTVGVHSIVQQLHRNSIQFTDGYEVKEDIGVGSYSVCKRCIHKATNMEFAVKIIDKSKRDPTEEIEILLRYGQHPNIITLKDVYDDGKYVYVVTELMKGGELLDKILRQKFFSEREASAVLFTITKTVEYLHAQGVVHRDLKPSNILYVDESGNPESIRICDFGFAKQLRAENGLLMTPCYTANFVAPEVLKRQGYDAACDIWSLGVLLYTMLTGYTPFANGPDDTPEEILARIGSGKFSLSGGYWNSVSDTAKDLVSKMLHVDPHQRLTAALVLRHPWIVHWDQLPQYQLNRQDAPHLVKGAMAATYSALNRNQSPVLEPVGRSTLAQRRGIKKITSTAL

[9] = target: Serine/threonine-protein kinase PAK 2 (Homo sapiens, UniProt Q13177)
Sequence of Serine/threonine-protein kinase PAK 2 (Q13177 whole entry): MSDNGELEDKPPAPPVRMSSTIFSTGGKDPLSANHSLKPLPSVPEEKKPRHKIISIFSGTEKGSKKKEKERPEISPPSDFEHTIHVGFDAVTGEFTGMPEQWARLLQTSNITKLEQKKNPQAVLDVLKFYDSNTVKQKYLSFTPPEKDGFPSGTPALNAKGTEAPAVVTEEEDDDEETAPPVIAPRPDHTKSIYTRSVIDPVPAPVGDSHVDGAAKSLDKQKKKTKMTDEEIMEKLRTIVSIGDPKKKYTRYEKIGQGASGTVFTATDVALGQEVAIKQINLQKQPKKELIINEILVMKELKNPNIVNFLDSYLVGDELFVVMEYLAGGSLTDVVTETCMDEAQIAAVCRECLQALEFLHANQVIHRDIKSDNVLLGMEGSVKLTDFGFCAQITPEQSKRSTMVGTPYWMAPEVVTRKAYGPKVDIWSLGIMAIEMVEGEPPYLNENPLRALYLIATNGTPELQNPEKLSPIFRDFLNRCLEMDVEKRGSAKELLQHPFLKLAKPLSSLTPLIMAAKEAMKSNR

[10] = target: cAMP-dependent protein kinase catalytic subunit beta (Homo sapiens, UniProt P22694)
[11] = target: Fibroblast growth factor receptor 3 (Homo sapiens, UniProt P22607)
Sequence of Fibroblast growth factor receptor 3 (P22607 whole entry, the tested form may be a part): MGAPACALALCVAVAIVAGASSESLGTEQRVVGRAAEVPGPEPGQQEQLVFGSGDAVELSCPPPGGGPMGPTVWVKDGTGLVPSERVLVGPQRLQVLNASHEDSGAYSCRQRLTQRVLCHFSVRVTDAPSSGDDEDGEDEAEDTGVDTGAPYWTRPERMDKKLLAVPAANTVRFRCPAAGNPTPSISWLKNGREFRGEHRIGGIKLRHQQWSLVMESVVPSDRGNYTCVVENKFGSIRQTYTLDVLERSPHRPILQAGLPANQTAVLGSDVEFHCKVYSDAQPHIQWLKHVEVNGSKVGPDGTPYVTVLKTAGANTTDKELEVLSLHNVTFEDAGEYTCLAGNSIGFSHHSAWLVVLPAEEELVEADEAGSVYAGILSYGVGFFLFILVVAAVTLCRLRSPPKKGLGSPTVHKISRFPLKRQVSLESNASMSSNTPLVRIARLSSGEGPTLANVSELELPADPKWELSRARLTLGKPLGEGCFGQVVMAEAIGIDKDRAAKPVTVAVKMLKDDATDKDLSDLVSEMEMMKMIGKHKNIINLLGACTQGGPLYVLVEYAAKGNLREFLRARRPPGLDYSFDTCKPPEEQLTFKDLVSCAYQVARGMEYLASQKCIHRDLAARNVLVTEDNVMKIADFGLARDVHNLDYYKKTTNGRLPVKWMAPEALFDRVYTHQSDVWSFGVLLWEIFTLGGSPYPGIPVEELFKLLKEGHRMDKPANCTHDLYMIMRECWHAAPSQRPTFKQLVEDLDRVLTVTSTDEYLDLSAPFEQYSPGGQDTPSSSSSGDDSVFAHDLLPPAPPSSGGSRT

[12] = target: T3, Ankyrin repeat and protein kinase domain-containing protein 1 (Homo sapiens, UniProt Q8NFD2)
T3 sequence (Q8NFD2 whole entry): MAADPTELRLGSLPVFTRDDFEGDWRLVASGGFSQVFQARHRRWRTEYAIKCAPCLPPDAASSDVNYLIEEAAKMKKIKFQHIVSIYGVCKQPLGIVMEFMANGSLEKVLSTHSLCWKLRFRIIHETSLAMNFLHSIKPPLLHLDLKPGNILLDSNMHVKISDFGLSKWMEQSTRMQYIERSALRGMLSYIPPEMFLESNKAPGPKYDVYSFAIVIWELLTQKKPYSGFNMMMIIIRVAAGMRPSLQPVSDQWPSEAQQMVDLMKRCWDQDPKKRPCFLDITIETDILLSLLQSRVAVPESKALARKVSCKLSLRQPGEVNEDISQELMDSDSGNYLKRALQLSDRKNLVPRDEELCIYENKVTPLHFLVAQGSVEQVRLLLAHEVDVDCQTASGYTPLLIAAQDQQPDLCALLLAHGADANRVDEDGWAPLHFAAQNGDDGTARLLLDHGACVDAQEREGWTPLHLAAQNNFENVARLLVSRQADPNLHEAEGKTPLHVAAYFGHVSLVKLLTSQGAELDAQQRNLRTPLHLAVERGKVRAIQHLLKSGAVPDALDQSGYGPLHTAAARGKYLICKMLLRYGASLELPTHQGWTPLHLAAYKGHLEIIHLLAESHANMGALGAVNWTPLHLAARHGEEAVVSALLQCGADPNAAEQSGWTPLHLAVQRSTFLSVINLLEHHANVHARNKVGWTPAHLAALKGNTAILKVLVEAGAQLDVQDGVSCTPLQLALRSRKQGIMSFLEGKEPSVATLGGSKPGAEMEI

[13] = target: Mitogen-activated protein kinase kinase kinase 4 (Homo sapiens, UniProt Q9Y6R4)
Sequence of Mitogen-activated protein kinase kinase kinase 4 (Q9Y6R4 whole entry): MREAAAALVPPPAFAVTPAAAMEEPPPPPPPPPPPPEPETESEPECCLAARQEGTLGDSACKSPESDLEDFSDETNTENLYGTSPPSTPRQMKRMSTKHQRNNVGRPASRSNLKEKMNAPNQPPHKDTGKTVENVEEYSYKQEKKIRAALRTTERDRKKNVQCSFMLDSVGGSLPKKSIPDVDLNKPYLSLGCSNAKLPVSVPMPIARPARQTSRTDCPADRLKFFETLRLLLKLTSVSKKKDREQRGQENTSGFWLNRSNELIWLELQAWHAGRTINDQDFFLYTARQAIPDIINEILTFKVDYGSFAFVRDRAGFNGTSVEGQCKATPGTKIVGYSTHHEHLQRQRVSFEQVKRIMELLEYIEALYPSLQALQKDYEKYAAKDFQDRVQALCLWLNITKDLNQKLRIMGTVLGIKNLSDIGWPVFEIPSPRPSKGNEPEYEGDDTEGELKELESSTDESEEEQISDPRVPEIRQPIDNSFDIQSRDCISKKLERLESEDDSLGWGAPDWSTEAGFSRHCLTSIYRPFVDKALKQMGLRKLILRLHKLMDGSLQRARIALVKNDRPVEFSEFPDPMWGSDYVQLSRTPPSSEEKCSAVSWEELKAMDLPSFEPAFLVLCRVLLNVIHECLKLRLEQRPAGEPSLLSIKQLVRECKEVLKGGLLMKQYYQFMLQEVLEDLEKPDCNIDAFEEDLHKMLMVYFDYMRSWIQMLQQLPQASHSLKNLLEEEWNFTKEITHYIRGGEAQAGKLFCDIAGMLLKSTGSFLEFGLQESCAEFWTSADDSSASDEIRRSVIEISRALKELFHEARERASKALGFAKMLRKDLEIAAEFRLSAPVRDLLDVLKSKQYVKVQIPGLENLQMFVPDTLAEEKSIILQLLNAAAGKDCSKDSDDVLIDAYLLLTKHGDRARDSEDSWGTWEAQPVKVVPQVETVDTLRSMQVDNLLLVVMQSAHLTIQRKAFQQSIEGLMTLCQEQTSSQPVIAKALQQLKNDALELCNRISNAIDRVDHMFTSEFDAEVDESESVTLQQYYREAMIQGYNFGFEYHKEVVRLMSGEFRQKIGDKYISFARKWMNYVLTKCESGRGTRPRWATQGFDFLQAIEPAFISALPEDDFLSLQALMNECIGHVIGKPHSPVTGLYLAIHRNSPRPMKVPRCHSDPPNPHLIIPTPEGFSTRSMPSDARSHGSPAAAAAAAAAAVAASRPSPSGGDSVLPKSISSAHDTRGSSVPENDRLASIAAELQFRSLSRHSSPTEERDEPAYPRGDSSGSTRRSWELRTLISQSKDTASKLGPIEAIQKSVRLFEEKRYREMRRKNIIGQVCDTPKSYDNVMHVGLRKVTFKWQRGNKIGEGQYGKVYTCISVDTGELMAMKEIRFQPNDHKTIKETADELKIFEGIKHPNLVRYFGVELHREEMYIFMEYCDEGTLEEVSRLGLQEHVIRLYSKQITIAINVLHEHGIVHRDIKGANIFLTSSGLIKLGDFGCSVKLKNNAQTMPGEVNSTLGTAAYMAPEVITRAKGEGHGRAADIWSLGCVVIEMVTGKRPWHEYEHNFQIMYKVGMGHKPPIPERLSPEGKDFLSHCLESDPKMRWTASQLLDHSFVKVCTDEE

Ephrin type-A receptor 5 = Ephrin type-A receptor 5 (Homo sapiens, UniProt P54756)
Focal adhesion kinase 1 = Focal adhesion kinase 1 (Homo sapiens, UniProt Q05397)
[14] = target: Phosphatidylinositol 4,5-bisphosphate 3-kinase catalytic subunit alpha isoform (Homo sapiens, UniProt P42336, E545K)

| SMILES | pKd [1] | pKd [2] | pKd [3] | pKd [4] | pKd [5] | pKd [6] | pKd [7] | pKd [8] | pKd [9] | pKd [10] | pKd [11] | pKd [12] | pKd [13] | pKd (Ephrin type-A receptor 5) | pKd (Focal adhesion kinase 1) | pKd [14] |
| --- | --- | --- | --- | --- | --- | --- | --- | --- | --- | --- | --- | --- | --- | --- | --- | --- |
| COCC(=O)NC/C=C/c1ccc2ncnc(Nc3ccc(Oc4ccc(C)nc4)c(C)c3)c2c1 [CP-724714] | < 5.00 | < 5.00 | < 5.00 | < 5.00 | < 5.00 | < 5.00 | < 5.00 | < 5.00 | < 5.00 | < 5.00 | < 5.00 | < 5.00 | < 5.00 | < 5.00 | < 5.00 |  |
| NC(=O)c1ccc(-c2nc(-c3ccc4c(c3)OCO4)c(-c3ccccn3)[nH]2)cc1 [SB-431542] | < 5.00 | < 5.00 |  | < 5.00 | < 5.00 | < 5.00 | < 5.00 | < 5.00 | < 5.00 | < 5.00 | < 5.00 | < 5.00 | < 5.00 | < 5.00 | < 5.00 | < 5.00 |
| Nc1nc(Nc2ccc(S(N)(=O)=O)cc2)nn1C(=O)c1c(F)cccc1F [JNJ-7706621] |  |  |  |  |  |  |  |  | < 5.00 | < 5.00 |  |  | < 5.00 | < 5.00 |  | < 5.00 |
| CCOc1cc2ncc(C#N)c(Nc3ccc(F)c(Cl)c3)c2cc1NC(=O)/C=C/CN(C)C [PELITINIB] | 8.00 | 5.21 | < 5.00 |  | < 5.00 | < 5.00 | < 5.00 | < 5.00 | < 5.00 | < 5.00 | < 5.00 | < 5.00 |  | < 5.00 |  | < 5.00 |
| CCN1CCN(Cc2ccc(NC(=O)Nc3ccc(Oc4cc(NC)ncn4)cc3)cc2C(F)(F)F)CC1 [AST-487] |  |  |  |  |  |  |  |  |  |  | < 5.00 |  |  |  |  |  |
| Oc1ccc(-c2nc(-c3ccncc3)c(-c3ccc(F)cc3)[nH]2)cc1 [SB-202190] | < 5.00 | < 5.00 | < 5.00 | < 5.00 | < 5.00 | < 5.00 | < 5.00 | < 5.00 | < 5.00 | 6.28 | < 5.00 | < 5.00 | < 5.00 | < 5.00 | < 5.00 | < 5.00 |
